Reference: publication PMC5218480 (PLoS ONE, 2017)

System: MV-4-11 cells
Assay: Gene expression microarray analysis (Affymetrix PrimeView) and GSEA
Assay type: cell-based, human
Conditions: ProbeSet 11758779_at; LIST B

Question: With `Nc1ncn([C@@H]2O[C@H](CO)[C@@H](O)[C@H]2O)c(=O)n1` [azacitidine] as the compound, how does the “RFU, TMEM50B” value read?
Answer: 84.99 RFU
